Species: Rattus norvegicus
Assay: DrugMatrix - Regimen: Daily Repeat
Assay type: toxicity, organism-based, Sprague-Dawley
Parameters: regimen Daily Repeat, gender Male, age 6-8 weeks
Settings: in vivo, po, 0 mg/kg, route oral GAVAGE, dose level Control, vehicle 100 % SALINE; for ABSOLUTE BASOPHIL / ABSOLUTE EOSINOPHIL / ABSOLUTE LYMPHOCYTE / ABSOLUTE MONOCYTE / ABSOLUTE SEGMENTED NEUTROPHIL / BASOPHIL / EOSINOPHIL / ERYTHROCYTE COUNT / HEMATOCRIT / HEMOGLOBIN / LEUKOCYTE COUNT / LYMPHOCYTE / MEAN CORPUSCULAR HEMOGLOBIN / MEAN CORPUSCULAR HEMOGLOBIN CONCENTRATION / MEAN CORPUSCULAR VOLUME / MONOCYTE / NEUTROPHIL / NUCLEATED RED BLOOD CELLS / PLATELET COUNT: tissue Blood; for ALANINE AMINOTRANSFERASE / ALBUMIN / ALKALINE PHOSPHATASE / ASPARTATE AMINOTRANSFERASE / BLOOD UREA NITROGEN / CARBON DIOXIDE / CHLORIDE / CHOLESTEROL / CREATINE PHOSPHOKINASE / CREATININE / GLUCOSE / LACTATE DEHYDROGENASE / LIPASE / PHOSPHORUS / POTASSIUM / SODIUM / TOTAL BILIRUBIN / TOTAL PROTEIN / URIC ACID: tissue Plasma

NC(=O)C[S+]([O-])C(c1ccccc1)c1ccccc1 (stereo unspecified) [MODAFINIL]
ABSOLUTE BASOPHIL (72 h, time 3 day): 0 CELLS/uL
ABSOLUTE EOSINOPHIL (72 h, time 3 day): 37 CELLS/uL
ABSOLUTE LYMPHOCYTE (72 h, time 3 day): 12359.33 CELLS/uL
ABSOLUTE MONOCYTE (72 h, time 3 day): 122.67 CELLS/uL
ABSOLUTE SEGMENTED NEUTROPHIL (72 h, time 3 day): 847.67 CELLS/uL
BASOPHIL (72 h, time 3 day): 0%
EOSINOPHIL (72 h, time 3 day): 0.33%
ERYTHROCYTE COUNT (72 h, time 3 day): 5.75 x10E6/uL
HEMATOCRIT (72 h, time 3 day): 36.08%
HEMOGLOBIN (72 h, time 3 day): 14.07 G/DL
LEUKOCYTE COUNT (72 h, time 3 day): 13.37 x10E3/uL
LYMPHOCYTE (72 h, time 3 day): 92.5%
MEAN CORPUSCULAR HEMOGLOBIN (72 h, time 3 day): 24.47 pg
MEAN CORPUSCULAR HEMOGLOBIN CONCENTRATION (72 h, time 3 day): 38.98 G/DL
MEAN CORPUSCULAR VOLUME (72 h, time 3 day): 62.78 fL
MONOCYTE (72 h, time 3 day): 1%
NEUTROPHIL (72 h, time 3 day): 6.17%
NUCLEATED RED BLOOD CELLS (72 h, time 3 day): 0.17 /100WBC
PLATELET COUNT (72 h, time 3 day): 1202.17 x10E3/uL
ALANINE AMINOTRANSFERASE (72 h, time 3 day): 50.67 u/L
ALBUMIN (72 h, time 3 day): 4.13 G/DL
ALKALINE PHOSPHATASE (72 h, time 3 day): 356.33 u/L
ASPARTATE AMINOTRANSFERASE (72 h, time 3 day): 78.17 u/L
BLOOD UREA NITROGEN (72 h, time 3 day): 14.17 mg/dL
CARBON DIOXIDE (72 h, time 3 day): 31.33 mmol/L
CHLORIDE (72 h, time 3 day): 98.5 MEQ/L
CHOLESTEROL (72 h, time 3 day): 76.5 mg/dL
CREATINE PHOSPHOKINASE (72 h, time 3 day): 248.33 u/L
CREATININE (72 h, time 3 day): 0.2 mg/dL
GLUCOSE (72 h, time 3 day): 144 mg/dL
LACTATE DEHYDROGENASE (72 h, time 3 day): 107 u/L
LIPASE (72 h, time 3 day): 9.83 u/L
PHOSPHORUS (72 h, time 3 day): 12.8 mg/dL
POTASSIUM (72 h, time 3 day): 6.75 MEQ/L
SODIUM (72 h, time 3 day): 142 MEQ/L
TOTAL BILIRUBIN (72 h, time 3 day): 0.18 mg/dL
TOTAL PROTEIN (72 h, time 3 day): 5.98 G/DL
URIC ACID (72 h, time 3 day): 1.42 mg/dL
ABSOLUTE BASOPHIL (120 h, time 5 day): 0 CELLS/uL
ABSOLUTE EOSINOPHIL (120 h, time 5 day): 0 CELLS/uL
ABSOLUTE LYMPHOCYTE (120 h, time 5 day): 8681.17 CELLS/uL
ABSOLUTE MONOCYTE (120 h, time 5 day): 79.83 CELLS/uL
ABSOLUTE SEGMENTED NEUTROPHIL (120 h, time 5 day): 689 CELLS/uL
BASOPHIL (120 h, time 5 day): 0%
EOSINOPHIL (120 h, time 5 day): 0%
ERYTHROCYTE COUNT (120 h, time 5 day): 5.49 x10E6/uL
HEMATOCRIT (120 h, time 5 day): 33.55%
HEMOGLOBIN (120 h, time 5 day): 13.1 G/DL
LEUKOCYTE COUNT (120 h, time 5 day): 9.45 x10E3/uL
LYMPHOCYTE (120 h, time 5 day): 92.33%
MEAN CORPUSCULAR HEMOGLOBIN (120 h, time 5 day): 23.92 pg
MEAN CORPUSCULAR HEMOGLOBIN CONCENTRATION (120 h, time 5 day): 39.07 G/DL
MEAN CORPUSCULAR VOLUME (120 h, time 5 day): 61.22 fL
MONOCYTE (120 h, time 5 day): 0.67%
NEUTROPHIL (120 h, time 5 day): 7%
NUCLEATED RED BLOOD CELLS (120 h, time 5 day): 0.17 /100WBC
PLATELET COUNT (120 h, time 5 day): 1001.17 x10E3/uL
ALANINE AMINOTRANSFERASE (120 h, time 5 day): 49.33 u/L
ALBUMIN (120 h, time 5 day): 4.07 G/DL
ALKALINE PHOSPHATASE (120 h, time 5 day): 300.33 u/L
ASPARTATE AMINOTRANSFERASE (120 h, time 5 day): 83.5 u/L
BLOOD UREA NITROGEN (120 h, time 5 day): 16 mg/dL
CARBON DIOXIDE (120 h, time 5 day): 29.67 mmol/L
CHLORIDE (120 h, time 5 day): 100.5 MEQ/L
CHOLESTEROL (120 h, time 5 day): 74.33 mg/dL
CREATINE PHOSPHOKINASE (120 h, time 5 day): 489.67 u/L
CREATININE (120 h, time 5 day): 0.35 mg/dL
GLUCOSE (120 h, time 5 day): 151 mg/dL
LACTATE DEHYDROGENASE (120 h, time 5 day): 133.67 u/L
LIPASE (120 h, time 5 day): 11.17 u/L
PHOSPHORUS (120 h, time 5 day): 10.88 mg/dL
POTASSIUM (120 h, time 5 day): 5.5 MEQ/L
SODIUM (120 h, time 5 day): 145.7 MEQ/L
TOTAL BILIRUBIN (120 h, time 5 day): 0.2 mg/dL
TOTAL PROTEIN (120 h, time 5 day): 6.05 G/DL
URIC ACID (120 h, time 5 day): 0.68 mg/dL
